Experimental data published in patent publication US10294205B2, “Allenamide as an orthogonal handle for selective modification of cysteine in peptides and proteins” (Nanyang Technological University, priority 2014, dated 2019).
Entries after “also recorded” stand apart in the source; their conditions may differ. Where no end group is shown, it is not given here. allenamide 1a = not defined here

Columns and labels:
BSA = molecular target: T1, BSA (Bos taurus, UniProt P02769); assay: Labelling BSA with 6-8, SDS-PAGE analysis; format: biochemical, bovine; settings: 10 nmol label, 1 nmol BSA, Tris-HCl pH 7.4, 37° C., 30 min
T1 construct: purchased
Protocol: 0.1 μmol/mL solution of BSA in H2O (10 μL, 1 nmol), 1.0 μmol/mL solution of 6, 7 and 8 in H2O (10 μL each, 10 nmol) and 80 μL of Tris-HCl buffer (pH 7.4) were mixed in 1 mL eppendorf tubes and incubated at 37° C. for 30 min.

[1] = Reaction of allenamide 1a with cysteine methyl ester (free thiol and amino groups)
Protocol: […] Reaction mixture was stirred for 30 minutes after which TLC confirmed the complete consumption of 1a. THF was evaporated on rotary evaporator and product was extracted two times in dichloromethane (2.5 mL each). Solvent was evaporated and product was purified by column chromatography (5% MeOH in dichloromethane) to get 32.8 mg (76% yield) of white solid (modified cysteine).

[2] = Reaction of 1a with lysine, serine and methionine under similar conditions; settings: similar conditions as for cysteine methyl ester
glutathione (GSH; 2) = assay: Modification of glutathione (2) using allenamide 1a; format: biochemical
Protocol: 6.5 mg glutathione (0.021 mmol) was dissolved in 0.5 mL ammonium carbonate buffer (pH 8.0) in a 4 mL glass vial. To this solution was added 7.3 mg of allenamide 1a (0.042 mmol; 2 eq.) in 0.5 mL THF and resulting solution was mixed well using a pipette. […] This mixture was centrifuged at 8000 rpm for 5 min. Liquid was carefully decanted and the solid precipitated was washed two times with THF. The precipitate after final washing was dried in vacuum to give 9.9 mg (97% yield) of white solid (modified glutathione).

[3] = tested on: peptides CGKSRF (3), KSCGRF (4) and YDSQCFHRW (5); assay: Modification of peptides 3, 4 and 5 with allenamide 1a; format: biochemical
Protocol: 100 μL of the peptide solution (250 μM in ammonium carbonate buffer of pH 8.0) was mixed with an equal amount of the solution of 1a (2.5 mM in ammonium carbonate buffer containing 5% THF). After pipette mixing, reaction mixture was allowed to stand at room temperature for 10-20 minutes. […] Site selectivity was established by LC-MS/MS.
(§1) The irreversibility of the conjugation product was tested with peptide 5 and GSH (2). No reversion to starting material 5 was observed when the conjugation product of 5 and 1a was incubated with excess (100 equivalent) glutathione for overnight at 37° C. […] The irreversibility of specific cysteine labelling may thus enable the possibility for the protein modification in intracellular environment.

[4] = molecular target: T2, bovine insulin (reduced chain A and chain B) (Bos taurus, UniProt P01317); assay: Modification of DTT-reduced bovine insulin using 1a; format: biochemical
T2 construct: purchased
Protocol: After promising results in simple peptides, similar modification of cysteine residue in more complicated peptide sequences was also examined. A more complex pair of peptides generated from the DTT treatment of bovine insulin was tested (FIG. 10).
10 equivalents of solid DTT was added to 2 ml of a 10 mM solution of bovine insulin in 50 mM ammonium carbonate buffer of pH 8. The mixture after pipette mixing was allowed to stand at 70° C. under nitrogen atmosphere for 10 minutes. LCMS was done after due time and cooling to room temperature to confirm complete reduction of disulfide bonds. […] Similarly the m/Z values corresponding to chain A were obtained as 779, 1169 and 2338 corresponding to +3, +2 and +1 charge on chain A (molecular weight 2337.97). To 1 ml of the reduced insulin mixture was added 25 equivalents of 1a dissolved in 500 μL of THF and reaction mixture was allowed to stand at room temperature for 30 min. after pipette mixing. […] Thus, the expected molecular weight of modified chain B was 3743.67 (3397.67+346) and that of chain A was 3029.97 (2337.97+692) and the observed m/z values for modified chain B were at 750, 937, 1249 and 1873 corresponding to +5, +4, +3 and +2 charge and for chain A were at 1011 and 1515 corresponding to +3 and +2 charge on the chain. The site selectivity was further confirmed by MS/MS (FIGS. 11 and 12, respectively).

[5] = molecular target: T3, BSA (Bovine Serum Albumin) (Bos taurus, UniProt P02769); assay: Modification (alkylation) of BSA with compound 1a, trypsin digestion and LC-MS/MS; format: biochemical; settings: DTT-reduced BSA, 30 min at 37° C., pH 8.0
T3 construct: purchased
Protocol: 6.6 mg of BSA (0.1 μmol) was dissolved in 1 ml of ammonium carbonate buffer (pH 8.0). To this was added 2.3 mg solid DTT (15 μmol) and after pipette mixing resulting mixture was incubated over night at 37° C. 3.7 mg of 1a (21 μmol) dissolved in 1 ml of ammonium carbonate buffer (5% THF) was then added to it and incubated again for 30 min at 37° C. After due time, protein was purified through nano-separation filtration. The purified protein was subjected to trypsin digestion and LC-MS/MS using standard protocols (FIG. 13).

peptide 5 (YDSQCFHRW) = assay: Modification of cysteine in peptide 5 using allenamides 1b-d; format: biochemical; settings: peptide sequence YDSQCFHRW; as determined by LCMS
Protocol: After pipette mixing, reaction mixture was allowed to stand at room temperature for 10-20 minutes. […] Site selectivity was established by LC-MS/MS.

TEM1 β-Lactamase (Bla) = TEM1 β-Lactamase (Bla) (Escherichia coli, UniProt P62593); assay: Labelling TEM1 β-lactamase with 7, SDS-PAGE analysis; format: biochemical, bacterial; settings: Tris-HCl pH 7.4, 37° C., 30 min
Protocol: For TEM1 β-Lactamase, 0.1 μmol/mL solution of β-Lactamase in H2O (10 μL, 1 nmol), 1.0 μmol/mL solution of 7 in H2O (10 μL, 10 nmol) and 80 μL of Tris-HCl buffer (pH 7.4) were mixed in a 1 mL eppendorf tube and incubated at 37° C. for 30 min. After due time, reaction mixture was subjected to SDS-PAGE analysis which confirmed no labelling. In second part of this experiment, 0.1 μmol/mL solution of β-Lactamase (1 mL) was heated with 1.0 μmol/mL solution of DTT (1 mL) at 80° C. for 10 min. After cooling down to room temperature, a 10 μL aliquot of this mixture was mixed with 10 μL of 7 (2.0 μmol/mL in H2O) and 80 μL of Tris-HCl buffer (pH 7.4) and incubated at 37° C. for 30 min.

[6] = Irreversibility of the conjugation products against excess thiol (LCMS); format: physicochemical; settings: excess (100 equivalent) glutathione, overnight at 37° C.
Protocol: as §1

T2 sequence (P01317 25-54 limits assumed): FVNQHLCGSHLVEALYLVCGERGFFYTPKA
T2 sequence (P01317 85-105 limits assumed): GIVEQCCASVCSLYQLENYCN
Sequence of TEM1 β-Lactamase (Bla) (P62593 24-286 limits assumed): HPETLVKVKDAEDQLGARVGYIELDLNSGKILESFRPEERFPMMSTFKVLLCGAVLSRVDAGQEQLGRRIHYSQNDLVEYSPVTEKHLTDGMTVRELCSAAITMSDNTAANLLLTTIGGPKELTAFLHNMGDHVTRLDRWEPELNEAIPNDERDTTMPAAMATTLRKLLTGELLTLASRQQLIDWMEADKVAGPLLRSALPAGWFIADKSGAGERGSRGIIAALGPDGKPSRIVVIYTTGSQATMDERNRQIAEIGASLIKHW
T1 sequence (P02769 25-607): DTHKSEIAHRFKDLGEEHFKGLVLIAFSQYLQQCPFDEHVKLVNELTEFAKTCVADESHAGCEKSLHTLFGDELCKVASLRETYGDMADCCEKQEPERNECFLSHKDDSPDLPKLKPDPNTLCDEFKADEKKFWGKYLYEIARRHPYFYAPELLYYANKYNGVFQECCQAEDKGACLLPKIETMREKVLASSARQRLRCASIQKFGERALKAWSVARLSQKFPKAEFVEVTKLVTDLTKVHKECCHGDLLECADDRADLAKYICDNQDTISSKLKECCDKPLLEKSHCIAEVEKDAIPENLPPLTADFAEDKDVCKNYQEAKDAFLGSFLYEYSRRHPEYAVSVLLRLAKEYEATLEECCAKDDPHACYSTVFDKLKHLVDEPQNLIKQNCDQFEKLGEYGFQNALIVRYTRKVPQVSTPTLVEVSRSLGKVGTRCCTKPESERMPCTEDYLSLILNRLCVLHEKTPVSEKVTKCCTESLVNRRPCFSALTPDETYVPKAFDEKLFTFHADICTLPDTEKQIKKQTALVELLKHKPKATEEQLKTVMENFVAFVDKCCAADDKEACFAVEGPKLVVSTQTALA
T3 sequence (P02769 25-607): as above

With `C=C=CC(=O)NCCNC(=S)Nc1ccc2c(c1)C(=O)OC21c2ccc(O)cc2Oc2cc(O)ccc21` (single isomer, unassigned) [Compound 6] the “Labelling of BSA (SDS-PAGE)” value (BSA) was “labelling to have taken place successfully”.

With `C=C=CC(=O)NCc1ccccc1` [Allenamide 1a, N-benzylbuta-2,3-dienamide] the “Reaction at the free amino group of cysteine methyl ester” value ([1]; even when 1a was used in excess) was “No reaction”, the “Group of cysteine methyl ester involved in the reaction” value ([1]; gives product 1aa) was “Only the free thiol group” and the “Product formation with lysine, serine and methionine” value [2] was “no product was obtained”. For the same compound, the “Conversion of glutathione (LCMS)” value (glutathione (GSH; 2); 2 eq. 1a, ammonium carbonate buffer pH 8.0/THF, after 15 min) was “complete conversion”, the “Site of modification in glutathione (NMR, LC-MS/MS)” value (glutathione (GSH; 2); cysteine thiol versus amino groups) was “modification at the cysteine residue” and the “Site of modification in peptides 3, 4 and 5 (LCMS and LC-MS/MS)” value [3] was “selectively at cysteine”. The “Conversion of peptides 3, 4 and 5 (LCMS)” value ([3]; 250 μM peptide, 2.5 mM 1a, pH 8.0, room temperature, 10-20 minutes) was “quantitative conversion”, the “Reaction of other amino acid residues (histidine, lysine, tyrosine and other reactive side chains) with 1a” value ([3]; even after standing overnight) was “did not give any reaction” and the “Modification of reduced insulin chains (LCMS)” value ([4]; 25 equivalents of 1a, room temperature, 30 min) was “expected modification”. The “Molecules of allenamide included in chain A” value ([4]; chain A, from molecular weight increment 692) was “four molecules”, the “Molecules of allenamide included in chain B” value ([4]; chain B, from molecular weight increment 346) was “two molecules” and the “Modification of cysteine residues of BSA (LC-MS/MS of tryptic peptides)” value [5] was “All cysteine residues in the detected peptides were found to be modified”.

For `C=C=CC(=O)NCC(=O)OCC` [Allenamide 1b, ethyl 2-(buta-2,3-dienamido)acetate], the Conversion (peptide 5 (YDSQCFHRW)) was “Quantitative”.

With `C=C=CC(=O)NC1CCCCC1` [Allenamide 1c, N-cyclohexylbuta-2,3-dienamide] the Conversion (peptide 5 (YDSQCFHRW)) was “Quantitative”.

In the case of `C=C=CC(=O)Nc1cccc2ccccc12` [Allenamide 1d, N-(naphthalene-1-yl)buta-2,3-dienamide], the Conversion (peptide 5 (YDSQCFHRW)) is reported as “Quantitative”.

In the case of `C=C=CC(=O)NCCNC(=O)CCCCC[N+]1=C(/C=C/C=C2/N(C)c3ccccc3C2(C)C)C(C)(C)c2ccccc21.[Cl-]` [Compound 7], the “Labelling of BSA (SDS-PAGE)” value (BSA) is reported as “labelling to have taken place successfully”, the “Labelling of β-Lactamase after DTT treatment (SDS-PAGE)” value (TEM1 β-Lactamase (Bla); DTT at 80° C. for 10 min before) is reported as “successful labelling; also recorded: successful labeling was observed” and the “Labelling of β-Lactamase without DTT treatment (SDS-PAGE)” value (TEM1 β-Lactamase (Bla); no free cysteine) is reported as “no labelling; also recorded: no labeling was observed”.

For “conjugation product of 5 and 1a: peptide YDSQCFHRW (5) modified at cysteine with allenamide 1a (YDSQC(allenamide 1a)FHRW-OH; not fully specified; reading uncertain)”, the “Reversion of conjugation product to starting material 5” value [6] was “No reversion”.
